From US20210340629A1, “BIOMARKERS FOR CANCER THERAPY” (The Council of the Queensland Institute of Medical Research, priority 2018, published 2021) come the findings set out here.

In one experiment the test system is PARP. The experiment in a line: PARP cleavage as a measure of apoptosis. To be noted: any cell line treated, data not shown. It is filed as cell-based, human. An excerpt: Having established that G9a inhibition is effective in inducing death of melanoma cells in vitro, the molecular basis for this effect was then investigated. First, cells treated with UNC0642 were examined for its effect on the cleavage of PARP as a measure of apoptosis.

Another experiment relates to LC3B II. The experiment is described as follows: Immunoblotting analysis of LC3B I/II. As to conditions: D05 and C008 cell lines, 5 μM, 8 hours, FIG. 6. The class given is cell-based, human. The protocol: For immunoblotting, protein whole cell lysates were prepared using RIPA lysis buffer containing 20 mM Tris, pH 8.0, 150 mM NaCl, 10% glycerol, 1% Nonidet P-40 containing protease inhibitor cocktail (Roche). Nuclear extracts were obtained using a standard high salt extraction buffer (20 mM HEPES (pH 7.9), 0.32 M NaCl, 1 mM EDTA, and 1 mM EGTA) supplemented with 1mM DU and protease inhibitor cocktail. Protein assays were performed according to the Bradford method using a protein assay kit (BioRad). […] of denatured proteins were separated using 10% sodium dodecyl sulfate-polyacrylamide gel electrophoresis (SDS-PAGE) and transferred to Polyvinylidene difluoride (PVDF) membranes. The membranes were blocked for 1 hour in 5% skim milk in Tris-buffered saline with Tween 20 (TBST; 10 mM Tris-HCl, 150 mM NaCl, 0.1% Tween 20). Immunoblotting was performed with primary anti G9a (#3306, Cell Signaling), H3K9me2 (ab 1220, Abcam), H3 (ab1791, Abcam) or Tubulin (ab6046, Abcam) and detected with either HRP-conjugated anti-rabbit (#7074, Cell Signaling Technology) or HRP-conjugated anti-mouse (#7076, Cell Signaling Technology). After applying ECL detection reagents (GE Healthcare), protein bands were visualized using X-ray film (Fujifilm).
Immunoblotting analysis was performed as described above, but also utilizing an anti-LC3B primary antibody (ab48394, Abcam).

The subject of another experiment is MAP1LC3B. The experiment is described as follows: MAP1LC3B expression in excised D20 xenograft tumors (qRT-PCR, immunohistochemistry). The class given is in vivo, SCID mice. To be noted: 5 mg/kg. On the procedure: Quantitative RT-PCR and ChIP assays were conducted as previously described (Lee et al. (2010) Mol Cell 39, 71-85). Briefly, total RNA was isolated from either the tumor cells or from xenografts using Trizol (Invitrogen) and reverse transcription was performed from 2 μg of total RNA using the Superscript III cDNA synthesis system (Invitrogen). The abundance of mRNA was detected by an ABI VIIA7 system with SYBR Green Master Mix (Life Technologies). Primer pairs were designed to amplify 90-150 bp mRNA specific fragments and were confirmed as unique products by melting curve analysis. The quantity of mRNA was calculated using the ΔΔCt method and normalized to HPRT. All reactions were performed in triplicates.
Groups of 8 SCID mice per treatment group were used for xenograft studies to ensure adequate power to detect biological differences. All experiments were approved by the QIMR Berghofer Medical Research Institute Animal Ethics Committee. […] Tumor volumes (width2×length/2) were measured using a digital calliper, and presented as mean±SD. […]
Tumor sections were fixed in 4% paraformaldehyde. […] Aperio ImageScope software was used for imaging and quantitation of 5 non-overlapping tumor regions and evaluating the number of positive pixels per unit area in each region. Empty areas were manually excluded from quantification.
Quantitative RT-PCR was performed as described above.
Background: In qPCR the cycle at which signal appears reflects the starting amount.

The subject of experiment [1] is D05 and C092 melanoma cell lines. The experiment in a line: Cell cycle analysis (flow cytometric analysis). It is filed as cell-based, human. As to conditions: data not shown. A general note: Flow cytometry measures light scatter and fluorescence of single cells or particles in a stream.
In the next experiment the test system is normal melanocytes. The experiment is described as follows: Cell viability by MTT assay, normal melanocytes. It is filed as cell-based. To be noted: 5 μM, 48 hours, FIG. 2. The protocol:
UNC0642 was purchased from Sigma Aldrich. The panel of human melanoma cell lines, derived from cutaneous melanomas, is shown in Table 1 and the cells have all been previously described. Cells were maintained in Roswell Park Memorial Institute (RPMI) 1640 supplemented with 10% fetal bovine serum (FBS), 100 U/mL penicillin, and 100 µg/mL streptomycin in a humidified atmosphere of 5% CO2 at 37° C. Normal melanocytes were grown in Clonetics™ MGM™-4 Melanocyte Growth Medium-4 supplemented with CaCl2, phorbol-12-myristate 13-acetate (PMA), recombinant human fibroblast growth factor basic (rhFGF-B), recombinant human insulin (rh-insulin), hydrocortisone, bovine pituitary extract (BPE), FBS and GA-1000 (30 μg/ml Gentamycin and 15 ng/ml Amphotericin) (Lonza).
For proliferation studies, cells (5×10^3) were seeded in 96-place wells and allowed to adhere overnight, and incubated in fresh growth medium in the presence of either the G9a inhibitor UNC0642 (Sigma Aldrich) or the vehicle control DMSO (Sigma Aldrich). Proliferation was evaluated via real-time imaging using IncuCyte Zoom (Essen BioScience) and/or by performing a 3-(4,5-dimethylthiazol-2-yl)-2,5-diphenyltetrazolium bromide ([…]) assay. After monitoring the cells, 20 μL of MTT (5 mg/mL; Sigma-Aldrich) was added. […] The absorbance value (optical density) of each well was measured at 570 nm.
On the technique in general: Tetrazolium dyes change colour on reduction, which living cells bring about.

Experiment [2] has as its system C006 and C092 melanoma cell lines. The experiment in a line: Proliferation by IncuCyte Zoom real time cell imaging, less sensitive lines. It is filed as cell-based, human. As to conditions: C006 and C092, 5 μM, 48 hours, compared to vehicle. On the procedure:
Four cell lines were then chosen for further analysis. These were C006 (NRAS mt), C092 (Triple wt), C008 (NF1 mt) and D05 (BRAF mt). These four lines are representatives of the 4 cutaneous melanoma genomic subtypes and include 2 lines (C008 and D05) that were very sensitive to the inhibitor and 2 lines that were less sensitive (C006 and C092). Proliferation of these lines was evaluated by real time cell imaging using IncuCyte Zoom where cells were grown for 48 hours in the presence or absence of 5 μM UNC0642.
For proliferation studies, cells (5×10^3) were seeded in 96-place wells and allowed to adhere overnight, and incubated in fresh growth medium in the presence of either the G9a inhibitor UNC0642 (Sigma Aldrich) or the vehicle control DMSO (Sigma Aldrich). Proliferation was evaluated via real-time imaging using IncuCyte Zoom (Essen BioScience) and/or by performing a 3-(4,5-dimethylthiazol-2-yl)-2,5-diphenyltetrazolium bromide ([…]) assay. After monitoring the cells, 20 μL of MTT (5 mg/mL; Sigma-Aldrich) was added. The plates were incubated at 37° C. for 3 h before the supernatants were removed, and 100 μL of isopropanol was added to each well. The absorbance value (optical density) of each well was measured at 570 nm.

Regarding `COc1cc2c(NC3CCN(C(C)C)CC3)nc(N3CCC(F)(F)CC3)nc2cc1OCCCN1CCCC1` [UNC0642], the PARP cleavage result with PARP is “No observable PARP cleavage”. For the same molecule, the “LC3B II protein levels” value in the experiment on LC3B II is “dramatically increased”. In the experiment with MAP1LC3B (compared to the vehicle treated group, P<0.01, FIG. 10C), the “expression of the MAP1LC3B gene in tumors (quantitative real time PCR)” value was “statistically significant increase”. The “level of MAP1LC3B in the excised tumors (immunohistochemical analysis)” value in the experiment with MAP1LC3B (compared to vehicle, FIG. 10D) was “significantly increased”. The “increase in preG1 population” value in experiment [1] (C092 (less G9a inhibitor responsive) cell line) is on record as “absent”. Moreover, in experiment [1] (D05 and C092, flow cytometric analysis), the cell cycle status result is “neither D05 nor C092 showed any changes in cell cycle status”. Besides, the “increase in cells in preG1 phase” value in experiment [1] (G9a inhibitor responsive cells (D05)) is on record as “greater than 4 fold”. The “cells in both G1 and G2/M phases” value in experiment [1] is recorded as “reduction”. Besides, the “survival of the normal melanocyte cell culture” value in the experiment on normal melanocytes is “unaffected”. In addition, in experiment [2], the proliferation entry is “much less affected”.
